This passage reports IC50, Activity and inhibition results from ChEMBL document CHEMBL5223094, “Recent advancements in chromone as a privileged scaffold towards the development of small molecules for neurodegenerative therapeutics” (RSC Med Chem, 2022).

The target in data set [1] is Cholinesterase (Equus caballus, UniProt P81908). In words: Inhibition of equine serum BuchE using butyrylthiocholine iodide as substrate preincubated for 10 mins followed by substrate addition and measured after 20 mins by DTNB based Ellman's method.
The target of data set [2] is T1, Acetylcholinesterase (Homo sapiens, UniProt P22303). In words: Inhibition of human AchE expressed in human HEK293 cells using acetylthiocholine as substrate preincubated for 10 mins followed by substrate addition and measured after 5 to 8 mins by DTNB based Ellman's spectrophotometric method. Format: cell-based.
The target in data set [3] is T2, Amine oxidase [flavin-containing] A (Homo sapiens, UniProt P21397).
T2 sequence (P21397 whole entry): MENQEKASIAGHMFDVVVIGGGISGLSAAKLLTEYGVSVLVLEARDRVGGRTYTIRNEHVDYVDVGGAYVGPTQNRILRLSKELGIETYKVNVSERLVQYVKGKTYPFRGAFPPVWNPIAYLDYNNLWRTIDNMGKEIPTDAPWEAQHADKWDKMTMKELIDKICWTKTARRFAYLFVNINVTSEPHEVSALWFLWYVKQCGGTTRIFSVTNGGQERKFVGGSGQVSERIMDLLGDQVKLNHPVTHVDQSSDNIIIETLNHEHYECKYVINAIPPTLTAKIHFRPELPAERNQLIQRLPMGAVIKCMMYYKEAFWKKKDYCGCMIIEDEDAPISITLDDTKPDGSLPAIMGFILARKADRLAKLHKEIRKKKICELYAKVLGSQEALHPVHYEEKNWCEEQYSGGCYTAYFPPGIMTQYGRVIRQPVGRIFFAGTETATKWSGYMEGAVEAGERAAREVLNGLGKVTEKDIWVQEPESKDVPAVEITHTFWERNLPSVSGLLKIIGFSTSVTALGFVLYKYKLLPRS
The data set is described as follows: Inhibition of human MAO-A using kynuramine as substrate preincubated for 5 mins followed by substrate addition and measured after 30 mins by spectroscopic analysis.

Data set [4] has as its target T3, Amine oxidase [flavin-containing] B (Homo sapiens, UniProt P27338).
T3 sequence (P27338 whole entry): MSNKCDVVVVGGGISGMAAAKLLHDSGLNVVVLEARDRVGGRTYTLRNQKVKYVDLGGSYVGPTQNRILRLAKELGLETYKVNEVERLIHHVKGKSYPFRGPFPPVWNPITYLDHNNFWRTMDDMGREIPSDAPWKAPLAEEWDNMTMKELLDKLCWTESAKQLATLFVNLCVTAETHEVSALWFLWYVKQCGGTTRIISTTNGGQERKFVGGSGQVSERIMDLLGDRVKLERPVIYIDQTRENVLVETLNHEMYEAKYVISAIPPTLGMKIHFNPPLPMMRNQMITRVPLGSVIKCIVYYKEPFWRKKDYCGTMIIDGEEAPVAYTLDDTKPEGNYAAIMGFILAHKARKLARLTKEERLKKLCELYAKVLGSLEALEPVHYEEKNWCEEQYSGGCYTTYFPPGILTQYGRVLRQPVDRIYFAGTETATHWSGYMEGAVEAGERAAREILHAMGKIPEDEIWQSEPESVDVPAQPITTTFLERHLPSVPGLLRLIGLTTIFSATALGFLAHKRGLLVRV
The data set is described as follows: Inhibition of human MAO-B using kynuramine as substrate preincubated for 5 mins followed by substrate addition and measured after 30 mins by spectroscopic analysis.

Data set [5] in a line: Antioxidant activity assessed as trolox equivalent of ORAC radical scavenging activity incubated for 15 mins by ORAC-fluorescein assay. Format: functional.
Data set [6] deals with T2, Amine oxidase [flavin-containing] A. The data set is described as follows: Inhibition of human MAO-A using tyramine as substrate preincubated for 10 mins followed by substrate addition and measured after 30 mins by fluorometric method.
The target of data set [7] is T3, Amine oxidase [flavin-containing] B. The data set is described as follows: Inhibition of human MAO-B using tyramine as substrate preincubated for 10 mins followed by substrate addition and measured after 30 mins by fluorometric method.
Data set [8] shares this target. The data set is described as follows: Inhibition of human MAO-B assessed as recovery of enzyme activity by dialysis method. Also noted: scale not given: the % may be the effect or the level left.
The target in data set [9] is T1, Acetylcholinesterase. In words: Inhibition of AchE (unknown origin) using acetylthiocholine iodide as substrate preincubated for 15 mins followed by substrate addition and measured upto 4 mins by Ellman's spectrophotometric method.
Data set [10] deals with T1, Acetylcholinesterase. In words: Inhibition of recombinant human AchE using acetylthiocholine iodide as substrate and measured upto 2 mins by Ellman's method.
For data set [11], the target named is T4, Polyunsaturated fatty acid lipoxygenase ALOX15 (Homo sapiens, UniProt P16050).
T4 sequence (P16050 whole entry): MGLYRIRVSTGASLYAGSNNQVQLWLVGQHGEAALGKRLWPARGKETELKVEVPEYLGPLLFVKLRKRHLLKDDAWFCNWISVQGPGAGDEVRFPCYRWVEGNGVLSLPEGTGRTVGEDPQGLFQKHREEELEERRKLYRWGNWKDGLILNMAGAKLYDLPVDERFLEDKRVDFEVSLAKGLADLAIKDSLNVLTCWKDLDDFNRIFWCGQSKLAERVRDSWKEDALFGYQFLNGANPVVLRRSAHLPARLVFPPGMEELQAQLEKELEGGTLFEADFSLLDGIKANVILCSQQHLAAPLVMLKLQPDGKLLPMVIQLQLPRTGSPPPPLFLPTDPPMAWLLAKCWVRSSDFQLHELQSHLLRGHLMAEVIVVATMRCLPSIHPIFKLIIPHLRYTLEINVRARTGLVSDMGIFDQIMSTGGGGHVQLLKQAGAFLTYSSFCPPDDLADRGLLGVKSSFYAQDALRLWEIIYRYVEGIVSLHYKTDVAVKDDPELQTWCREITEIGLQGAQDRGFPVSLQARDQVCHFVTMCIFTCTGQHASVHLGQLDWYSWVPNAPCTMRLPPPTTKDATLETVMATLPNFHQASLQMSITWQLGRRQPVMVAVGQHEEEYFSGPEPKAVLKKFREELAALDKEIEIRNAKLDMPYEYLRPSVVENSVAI
The data set is described as follows: Inhibition of LOX15 (unknown origin).

Data set [12] in a line: Antioxidant activity assessed as DPPH radical scavenging activity. Format: functional.
Data set [13] concerns the target T1, Acetylcholinesterase. The data set is described as follows: Inhibition of recombinant human AChE using acetylthiocholine as substrate preincubated for 15 mins followed by substrate addition and measured after 5 mins by DTNB reagent based Ellman's method.
The target in data set [14] is Cholinesterase (Homo sapiens, UniProt P06276). The data set is described as follows: Inhibition of recombinant human BuChE using butyrylthiocholine as substrate preincubated for 15 mins followed by substrate addition and measured after 5 mins by Ellman's method.
Data set [15] addresses T5, Polyunsaturated fatty acid 5-lipoxygenase (Homo sapiens, UniProt P09917).
T5 sequence (P09917 whole entry): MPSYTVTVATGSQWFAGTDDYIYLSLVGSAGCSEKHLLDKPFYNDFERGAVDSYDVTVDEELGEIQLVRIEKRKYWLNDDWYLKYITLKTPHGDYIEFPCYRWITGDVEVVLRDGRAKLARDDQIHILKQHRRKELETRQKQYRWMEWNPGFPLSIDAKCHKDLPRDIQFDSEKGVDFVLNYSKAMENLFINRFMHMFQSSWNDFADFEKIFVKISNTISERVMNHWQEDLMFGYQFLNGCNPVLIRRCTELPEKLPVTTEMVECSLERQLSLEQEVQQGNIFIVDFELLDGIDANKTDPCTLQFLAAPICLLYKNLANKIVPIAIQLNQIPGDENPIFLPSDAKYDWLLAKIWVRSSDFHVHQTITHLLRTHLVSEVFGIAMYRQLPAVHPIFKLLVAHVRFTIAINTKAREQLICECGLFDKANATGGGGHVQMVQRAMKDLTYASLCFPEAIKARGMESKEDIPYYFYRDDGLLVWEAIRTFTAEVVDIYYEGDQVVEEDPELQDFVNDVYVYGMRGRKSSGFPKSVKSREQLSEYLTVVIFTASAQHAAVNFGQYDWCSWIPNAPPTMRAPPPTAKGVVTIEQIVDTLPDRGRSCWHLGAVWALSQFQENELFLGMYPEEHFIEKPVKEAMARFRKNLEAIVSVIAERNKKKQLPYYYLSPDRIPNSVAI
In words: Inhibition of human LOX5 using arachidonic acid preincubated for 10 mins followed by substrate addition by microplate spectrophotometric analysis.

A short description of data set [16]: Inhibition of soybean LOX15 using arachidonic acid preincubated for 5 mins followed by substrate addition and measured after 5 mins by microplate spectrophotometric analysis. The arrangement: species or system Glycine max.
A short description of data set [17]: Antioxidant activity assessed as DPPH radical scavenging activity incubated for 45 mins by microplate spectrophotometric anlaysis. Format: functional.
Data set [18] deals with Acetylcholinesterase (Electrophorus electricus, UniProt O42275). The data set is described as follows: Inhibition of electric eel AChE using acetylthiocholine iodide as substrate preincubated for 5 mins followed by substrate addition and measured upto 7.5 mins by Ellman's method.
For data set [19], the target named is Amyloid-beta precursor protein (Homo sapiens) (UniProt P05067). In words: Inhibition of Amyloid beta (1 to 42) (unknown origin) self aggregation and at 20 uM and measured upto 24 hrs by ThT-based fluorimetric assay.
Data set [20] concerns the target T2, Amine oxidase [flavin-containing] A. The data set is described as follows: Inhibition of recombinant human MAO-A using tyramine as substrate preincubated for 30 mins followed by substrate addition and measured after 30 mins by amplex red reagent based fluorometric method.
The target of data set [21] is T3, Amine oxidase [flavin-containing] B. In words: Inhibition of recombinant human MAO-B using tyramine as substrate preincubated for 30 mins followed by substrate addition and measured after 30 mins by amplex red reagent based fluorometric method.
In data set [22] the target is T5, Polyunsaturated fatty acid 5-lipoxygenase. In words: Inhibition of LOX5 (unknown origin).
Data set [23] deals with T6, Prostaglandin G/H synthase 2 (Homo sapiens, UniProt P35354).
T6 sequence (P35354 whole entry): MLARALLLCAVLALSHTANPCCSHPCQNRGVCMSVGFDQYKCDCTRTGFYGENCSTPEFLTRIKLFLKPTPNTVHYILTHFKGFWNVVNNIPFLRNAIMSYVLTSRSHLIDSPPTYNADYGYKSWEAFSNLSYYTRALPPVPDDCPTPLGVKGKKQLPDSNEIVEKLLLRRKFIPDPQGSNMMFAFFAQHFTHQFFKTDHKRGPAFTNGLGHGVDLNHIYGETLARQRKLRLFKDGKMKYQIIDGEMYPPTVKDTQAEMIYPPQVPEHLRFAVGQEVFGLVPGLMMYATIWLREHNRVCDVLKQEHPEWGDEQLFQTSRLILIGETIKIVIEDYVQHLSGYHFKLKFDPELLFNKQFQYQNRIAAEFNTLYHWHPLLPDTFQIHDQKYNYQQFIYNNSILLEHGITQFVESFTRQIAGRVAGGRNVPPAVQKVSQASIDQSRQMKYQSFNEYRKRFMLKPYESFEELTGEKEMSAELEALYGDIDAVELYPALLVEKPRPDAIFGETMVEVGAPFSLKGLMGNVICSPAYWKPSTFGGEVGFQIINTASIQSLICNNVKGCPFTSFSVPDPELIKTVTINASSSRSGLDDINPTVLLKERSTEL
In words: Inhibition of COX2 (unknown origin).

Data set [24] concerns the target Beta-secretase 1 (Homo sapiens, UniProt P56817). In words: Inhibition of recombinant human BACE-1 expressed in baculovirus using Rh-EVNLDAEFK-Quencher as substrate incubated for 60 mins by FRET assay.
Data set [25] concerns the target T6, Prostaglandin G/H synthase 2. The data set is described as follows: Inhibition of COX2 (unknown origin) using arachidonic acid as substrate preincubated for 5 mins followed by substrate addition by microplate spectrophotometric analysis.

T1 sequence (P22303 whole entry): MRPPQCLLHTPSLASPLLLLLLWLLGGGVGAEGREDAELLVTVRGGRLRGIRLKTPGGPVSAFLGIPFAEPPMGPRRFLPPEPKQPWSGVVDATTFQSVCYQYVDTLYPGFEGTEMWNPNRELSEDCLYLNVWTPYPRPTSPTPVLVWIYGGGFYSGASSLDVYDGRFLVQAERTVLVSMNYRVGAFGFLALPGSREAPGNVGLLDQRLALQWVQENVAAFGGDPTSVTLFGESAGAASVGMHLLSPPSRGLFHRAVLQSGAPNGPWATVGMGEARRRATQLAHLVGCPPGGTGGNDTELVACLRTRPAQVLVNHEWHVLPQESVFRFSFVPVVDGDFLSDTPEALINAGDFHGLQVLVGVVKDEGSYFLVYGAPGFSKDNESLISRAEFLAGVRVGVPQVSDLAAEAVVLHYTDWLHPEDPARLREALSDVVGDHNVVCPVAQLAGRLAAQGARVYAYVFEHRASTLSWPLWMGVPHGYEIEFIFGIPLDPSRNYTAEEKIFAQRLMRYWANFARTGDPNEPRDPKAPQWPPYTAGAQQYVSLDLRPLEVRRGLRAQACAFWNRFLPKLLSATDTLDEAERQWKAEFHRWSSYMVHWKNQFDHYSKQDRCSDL
Cholinesterase (Homo sapiens, UniProt P06276), sequence (P06276 whole entry): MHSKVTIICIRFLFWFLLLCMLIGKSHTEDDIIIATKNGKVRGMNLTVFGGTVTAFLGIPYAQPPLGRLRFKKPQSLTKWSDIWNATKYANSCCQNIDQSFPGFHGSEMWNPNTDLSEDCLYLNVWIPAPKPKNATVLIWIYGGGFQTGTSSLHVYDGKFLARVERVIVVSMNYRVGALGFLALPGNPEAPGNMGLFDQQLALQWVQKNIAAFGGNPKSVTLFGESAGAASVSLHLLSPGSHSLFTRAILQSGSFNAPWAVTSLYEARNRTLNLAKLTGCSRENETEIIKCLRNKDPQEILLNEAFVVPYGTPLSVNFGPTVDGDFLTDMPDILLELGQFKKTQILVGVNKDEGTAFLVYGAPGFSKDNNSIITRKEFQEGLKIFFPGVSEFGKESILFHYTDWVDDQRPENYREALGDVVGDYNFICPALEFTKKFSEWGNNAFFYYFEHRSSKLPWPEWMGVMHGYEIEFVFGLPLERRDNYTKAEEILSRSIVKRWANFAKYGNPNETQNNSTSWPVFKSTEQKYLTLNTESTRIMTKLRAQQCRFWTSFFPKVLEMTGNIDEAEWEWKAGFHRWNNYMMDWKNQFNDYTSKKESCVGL
Beta-secretase 1, sequence (P56817 whole entry): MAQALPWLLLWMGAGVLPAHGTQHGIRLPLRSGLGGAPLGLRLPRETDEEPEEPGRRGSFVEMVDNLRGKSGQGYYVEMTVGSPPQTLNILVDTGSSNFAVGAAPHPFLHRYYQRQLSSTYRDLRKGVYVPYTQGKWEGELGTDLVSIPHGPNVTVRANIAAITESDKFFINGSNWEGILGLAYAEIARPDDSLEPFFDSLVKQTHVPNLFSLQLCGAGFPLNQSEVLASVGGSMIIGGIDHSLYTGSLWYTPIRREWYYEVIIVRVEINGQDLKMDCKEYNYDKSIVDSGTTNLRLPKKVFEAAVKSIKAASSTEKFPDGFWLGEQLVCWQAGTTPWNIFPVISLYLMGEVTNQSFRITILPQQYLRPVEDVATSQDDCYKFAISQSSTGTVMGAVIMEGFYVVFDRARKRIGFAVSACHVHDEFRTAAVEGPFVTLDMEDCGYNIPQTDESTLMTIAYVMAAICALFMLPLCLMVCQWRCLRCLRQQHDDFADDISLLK
Cholinesterase (Equus caballus, UniProt P81908), sequence (P81908 whole entry): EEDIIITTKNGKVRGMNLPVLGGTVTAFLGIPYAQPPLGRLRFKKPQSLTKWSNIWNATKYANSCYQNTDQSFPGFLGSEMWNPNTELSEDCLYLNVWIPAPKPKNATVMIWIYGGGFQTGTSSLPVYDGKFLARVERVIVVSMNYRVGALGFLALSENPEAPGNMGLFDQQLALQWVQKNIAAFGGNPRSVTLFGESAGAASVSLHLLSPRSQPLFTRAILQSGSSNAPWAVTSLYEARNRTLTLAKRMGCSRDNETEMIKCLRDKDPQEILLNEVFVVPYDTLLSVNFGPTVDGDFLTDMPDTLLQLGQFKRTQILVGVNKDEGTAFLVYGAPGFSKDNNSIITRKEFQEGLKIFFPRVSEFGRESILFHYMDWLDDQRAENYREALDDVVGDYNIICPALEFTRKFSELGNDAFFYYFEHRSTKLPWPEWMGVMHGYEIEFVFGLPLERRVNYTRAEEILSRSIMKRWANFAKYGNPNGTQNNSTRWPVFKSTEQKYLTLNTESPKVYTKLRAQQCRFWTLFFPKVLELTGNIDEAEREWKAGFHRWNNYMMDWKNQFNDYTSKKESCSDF
Acetylcholinesterase (Electrophorus electricus, UniProt O42275), sequence (O42275 whole entry): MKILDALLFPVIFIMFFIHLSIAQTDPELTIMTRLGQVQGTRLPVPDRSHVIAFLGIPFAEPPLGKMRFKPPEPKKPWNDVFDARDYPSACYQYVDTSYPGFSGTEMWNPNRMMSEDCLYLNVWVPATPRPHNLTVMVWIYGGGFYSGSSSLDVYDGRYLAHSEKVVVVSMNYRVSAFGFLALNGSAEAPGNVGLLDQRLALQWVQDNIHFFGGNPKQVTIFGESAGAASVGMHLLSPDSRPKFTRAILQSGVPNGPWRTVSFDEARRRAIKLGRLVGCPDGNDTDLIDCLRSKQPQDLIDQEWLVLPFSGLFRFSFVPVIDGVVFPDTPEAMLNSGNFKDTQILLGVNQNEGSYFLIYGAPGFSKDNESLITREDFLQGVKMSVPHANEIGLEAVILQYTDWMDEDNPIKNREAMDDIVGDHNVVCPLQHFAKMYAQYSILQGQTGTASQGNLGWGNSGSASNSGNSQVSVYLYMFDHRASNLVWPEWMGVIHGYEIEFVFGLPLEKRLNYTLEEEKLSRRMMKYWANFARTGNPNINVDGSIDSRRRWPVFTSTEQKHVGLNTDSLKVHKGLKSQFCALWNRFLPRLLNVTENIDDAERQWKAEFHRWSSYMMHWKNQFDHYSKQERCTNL
Amyloid-beta precursor protein (Homo sapiens), sequence (P05067 whole entry): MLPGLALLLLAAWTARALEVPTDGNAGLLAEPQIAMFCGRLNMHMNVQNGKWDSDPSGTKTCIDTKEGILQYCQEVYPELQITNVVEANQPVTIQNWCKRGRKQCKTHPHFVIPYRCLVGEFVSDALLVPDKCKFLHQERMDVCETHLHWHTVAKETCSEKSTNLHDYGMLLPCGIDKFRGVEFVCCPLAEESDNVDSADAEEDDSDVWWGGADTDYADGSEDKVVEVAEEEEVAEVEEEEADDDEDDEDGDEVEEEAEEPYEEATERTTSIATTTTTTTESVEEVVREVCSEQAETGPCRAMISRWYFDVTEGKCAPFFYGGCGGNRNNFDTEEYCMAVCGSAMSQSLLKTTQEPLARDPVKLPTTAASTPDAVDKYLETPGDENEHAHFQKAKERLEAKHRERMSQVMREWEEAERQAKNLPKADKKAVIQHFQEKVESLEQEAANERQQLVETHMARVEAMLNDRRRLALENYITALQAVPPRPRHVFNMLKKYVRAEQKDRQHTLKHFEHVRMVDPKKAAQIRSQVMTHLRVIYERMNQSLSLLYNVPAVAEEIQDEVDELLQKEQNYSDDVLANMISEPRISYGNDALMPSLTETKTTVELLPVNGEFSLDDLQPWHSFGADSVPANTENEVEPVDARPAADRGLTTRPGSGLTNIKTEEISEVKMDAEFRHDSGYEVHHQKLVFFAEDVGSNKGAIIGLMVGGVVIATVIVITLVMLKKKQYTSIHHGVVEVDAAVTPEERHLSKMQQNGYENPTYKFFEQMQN

In the case of `COc1ccc2[nH]cc(CCNC(=O)CN(CCCCC3CCN(Cc4ccccc4)CC3)C(=O)c3cc(=O)c4ccccc4o3)c2c1`, the IC50 came out at 0.012 µM in data set [1], 2 µM in [2], 3 µM in [3] and 21 µM in data set [4]. The Activity in data set [5] stood at 3.04 equiv.
For `Cc1ccc(NC(=O)c2c(OCc3ccccc3)ccc3c(=O)c(C)c(C)oc23)cc1`, the IC50 in data set [6] is 4 µM; in data set [7] it was 0.1 µM. In [8], the Activity worked out at 70%.
Turning to `CCOP(=O)(OCC)C(NCCc1ccc(OC)cc1)c1coc2ccccc2c1=O` (centres undefined), the half-maximal inhibitory concentration (IC50) in data set [9] stood at 0.1 µM.
Regarding `COc1ccc2c(=O)cc(C(=O)NCCN3CCCCC3)oc2c1`, the IC50 in data set [10] turned out to be 0.09 µM.
`COc1ccc(-c2cc3cc4c(=O)c(C=O)coc4cc3o2)cc1`: the IC50 in data set [11] came out at 9.6 µM; in data set [12], 18.1 µM; in [13], 10 µM; in [14], 5 µM; in data set [15], 15 µM; in data set [16], 10 µM. Moreover, the IC50 in data set [17] worked out at 18 µM.
`Cc1ccc(C#CCOc2ccccc2/C=C/c2cc(=O)c3ccccc3o2)cc1`: the IC50 in [18] came to 3 µM. Further, the inhibition in data set [19] was 66%.
As to `O=C(OCc1ccc(Cl)cc1)c1coc2ccccc2c1=O`, the results for the IC50 in data set [20] and in data set [21] were 19 µM and 10 µM, respectively.
For the molecule `O=c1c(/C=N/Nc2ccc(C(F)(F)F)cc2)coc2c1ccc1oc(-c3ccc(Cl)cc3)cc12`, the half-inhibitory concentration (IC50) was found to be 28.5 µM in [22]; 10.4 µM in [23]; 14 µM in data set [24]; 5 µM in data set [13]; 10 µM in data set [14]; 10 µM in data set [25]. The IC50 amounted to 29 µM in data set [15] and 15 µM in data set [16].
